Source: ChEMBL document CHEMBL1201862, “PubChem BioAssay data set” (2004)
Values joined by “and” are separate entries in the source; they are usually repeats but may differ in a detail not shown here. Equal entries are not always repeated.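 Values below derive from 48-hour exposures of cells grown in 96-well plates, with endpoints linearly interpolated between the two concentrations bracketing the appropriate inhibition level. Abbreviation: GI50, concentration required for 50% inhibition of growth.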 Active and inactive are the calls of the source. Rule as the data show it: active = GI50 up to about 1.1 µM and inactive = higher.

Legend:
Assay in all cases: DTP human tumour cell line panel, 48 h
HOP-92 = tested on: HOP-92
SNB-19 = tested on: SNB-19
SK-MEL-28 = tested on: SK-MEL-28
DU-145 = tested on: DU-145
SN12C = tested on: SN12C
NCI-H522 = tested on: NCI-H522
K562 = tested on: K562
A549 = tested on: A549
BT-549 = tested on: BT-549
M14 = tested on: M14
CCRF-CEM = tested on: CCRF-CEM
HT-29 = tested on: HT-29
RXF 393 = tested on: RXF 393
SW-620 = tested on: SW-620
786-0 = tested on: 786-0
MDA-N = tested on: MDA-N
OVCAR-4 = tested on: OVCAR-4
SNB-75 = tested on: SNB-75
SF-539 = tested on: SF-539
UACC-62 = tested on: UACC-62
MDA-MB-231 = tested on: MDA-MB-231
KM12 = tested on: KM12
PC-3 = tested on: PC-3
HL-60 = tested on: HL-60
TK-10 = tested on: TK-10
A498 = tested on: A498
SF-268 = tested on: SF-268
SR = tested on: SR
OVCAR-3 = tested on: OVCAR-3
NCI/ADR-RES = tested on: NCI/ADR-RES
Malme-3M = tested on: Malme-3M
LOX IMVI = tested on: LOX IMVI
U-251 = tested on: U-251
HCT-116 = tested on: HCT-116
SF-295 = tested on: SF-295
COLO 205 = tested on: COLO 205
NCI-H226 = tested on: NCI-H226
UO-31 = tested on: UO-31
OVCAR-5 = tested on: OVCAR-5
UACC-257 = tested on: UACC-257
ACHN = tested on: ACHN
CAKI-1 = tested on: CAKI-1
MOLT-4 = tested on: MOLT-4
MDA-MB-435 = tested on: MDA-MB-435
SK-OV-3 = tested on: SK-OV-3
MCF7 = tested on: MCF7
NCI-H23 = tested on: NCI-H23
OVCAR-8 = tested on: OVCAR-8
HCT-15 = tested on: HCT-15
Hs-578T = tested on: Hs-578T
EKVX = tested on: EKVX
SK-MEL-5 = tested on: SK-MEL-5
SK-MEL-2 = tested on: SK-MEL-2
IGROV-1 = tested on: IGROV-1
NCI-H460 = tested on: NCI-H460
HOP-62 = tested on: HOP-62
HCC 2998 = tested on: HCC 2998
T47D = tested on: T47D
RPMI-8226 = tested on: RPMI-8226

SMILES: N#CC1=C(N)OC2=C(CCCc3ccccc32)C1c1ccc([N+](=O)[O-])cc1 (stereo not drawn)
- GI50 (HOP-92): 19.1 µM (inactive)
- GI50 (SNB-19): 17.3 µM (inactive)
- GI50 (SK-MEL-28): 15.8 µM (inactive)
- GI50 (DU-145): 10.1 µM (inactive)
- GI50 (SN12C): 15.1 µM (inactive)
- GI50 (NCI-H522): 8.22 µM (inactive)
- GI50 (K562): 2.07 µM (inactive)
- GI50 (A549): 19 µM (inactive)
- GI50 (BT-549): 2.91 µM (inactive)
- GI50 (M14): 13.6 µM (inactive)
- GI50 (CCRF-CEM): 4.52 µM (inactive)
- GI50 (HT-29): 12.2 µM (inactive)
- GI50 (RXF 393): 13.2 µM (inactive)
- GI50 (SW-620): 13.6 µM (inactive)
- GI50 (786-0): 18.1 µM (inactive)
- GI50 (MDA-N): 15.9 µM (inactive)
- GI50 (OVCAR-4): 15.8 µM (inactive)
- GI50 (SNB-75): 55 µM (inactive)
- GI50 (SF-539): 19.2 µM (inactive)
- GI50 (UACC-62): 11.2 µM (inactive)
- GI50 (MDA-MB-231): 26.9 µM (inactive)
- GI50 (KM12): 16.1 µM (inactive)
- GI50 (PC-3): 17.1 µM (inactive)
- GI50 (HL-60): 5.93 µM (inactive)
- GI50 (TK-10): 28.8 µM (inactive)
- GI50 (A498): 12 µM (inactive)
- GI50 (SF-268): 15.1 µM (inactive)
- GI50 (SR): 10.9 µM (inactive)
- GI50 (OVCAR-3): 13.5 µM (inactive)
- GI50 (NCI/ADR-RES): 11.9 µM (inactive)
- GI50 (Malme-3M): 16.3 µM (inactive)
- GI50 (LOX IMVI): 19.1 µM (inactive)
- GI50 (U-251): 15.5 µM (inactive)
- GI50 (HCT-116): 12.8 µM (inactive)
- GI50 (SF-295): 14.9 µM (inactive)
- GI50 (COLO 205): 16.1 µM (inactive)
- GI50 (NCI-H226): 24.7 µM (inactive)
- GI50 (UO-31): 11.8 µM (inactive)
- GI50 (OVCAR-5): 21.8 µM (inactive)
- GI50 (UACC-257): 14.8 µM (inactive)
- GI50 (ACHN): 17.9 µM (inactive)
- GI50 (CAKI-1): 29.6 µM (inactive)
- GI50 (MOLT-4): 0.336 µM (active)
- GI50 (MDA-MB-435): 15.9 µM (inactive)
- GI50 (SK-OV-3): 30.9 µM (inactive)
- GI50 (MCF7): 16.7 µM (inactive)
- GI50 (NCI-H23): 15.2 µM (inactive)
- GI50 (OVCAR-8): 17.9 µM (inactive)
- GI50 (HCT-15): 12.2 µM
- GI50 (Hs-578T): 36.5 µM (inactive)
- GI50 (EKVX): 13.8 µM (inactive)
- GI50 (SK-MEL-5): 14.3 µM (inactive)
- GI50 (SK-MEL-2): 17.9 µM (inactive)
- GI50 (IGROV-1): 19.2 µM (inactive)
- GI50 (NCI-H460): 17.7 µM (inactive)
- GI50 (HOP-62): 17.2 µM (inactive)
- GI50 (HCC 2998): 13.6 µM (inactive)
- GI50 (T47D): 8.18 µM (inactive)
- GI50 (RPMI-8226): 1.85 µM (inactive)

SMILES: COc1nc(N)c(/N=C/C(OC(C)=O)C(OC(C)=O)C(COC(C)=O)OC(C)=O)c(=O)n1C (stereo not drawn)
- GI50 (HOP-92): > 100 µM (inactive)
- GI50 (SNB-19): > 100 µM (inactive)
- GI50 (SK-MEL-28): > 100 µM (inactive)
- GI50 (DU-145): > 100 µM (inactive)
- GI50 (SN12C): > 100 µM (inactive)
- GI50 (NCI-H522): > 100 µM (inactive)
- GI50 (K562): > 100 µM (inactive)
- GI50 (A549): > 100 µM (inactive)
- GI50 (BT-549): > 100 µM (inactive)
- GI50 (M14): > 100 µM (inactive)
- GI50 (CCRF-CEM): > 100 µM (inactive) and 62.2 µM (inactive)
- GI50 (HT-29): > 100 µM (inactive)
- GI50 (RXF 393): > 100 µM (inactive)
- GI50 (SW-620): > 100 µM (inactive)
- GI50 (786-0): > 100 µM (inactive)
- GI50 (MDA-N): > 100 µM (inactive)
- GI50 (OVCAR-4): > 100 µM (inactive)
- GI50 (SNB-75): > 100 µM (inactive)
- GI50 (SF-539): > 100 µM (inactive)
- GI50 (UACC-62): > 100 µM (inactive)
- GI50 (MDA-MB-231): > 100 µM (inactive)
- GI50 (KM12): > 100 µM (inactive)
- GI50 (PC-3): > 100 µM (inactive)
- GI50 (HL-60): > 100 µM (inactive)
- GI50 (TK-10): > 100 µM (inactive)
- GI50 (A498): > 100 µM (inactive)
- GI50 (SF-268): > 100 µM (inactive)
- GI50 (SR): > 100 µM (inactive)
- GI50 (OVCAR-3): > 100 µM (inactive)
- GI50 (NCI/ADR-RES): > 100 µM (inactive)
- GI50 (Malme-3M): > 100 µM (inactive)
- GI50 (LOX IMVI): > 100 µM (inactive)
- GI50 (U-251): > 100 µM (inactive)
- GI50 (HCT-116): > 100 µM (inactive)
- GI50 (SF-295): > 100 µM (inactive)
- GI50 (COLO 205): > 100 µM (inactive)
- GI50 (NCI-H226): > 100 µM (inactive)
- GI50 (UO-31): > 100 µM (inactive)
- GI50 (OVCAR-5): > 100 µM (inactive)
- GI50 (UACC-257): > 100 µM (inactive)
- GI50 (ACHN): > 100 µM (inactive)
- GI50 (CAKI-1): > 100 µM (inactive)
- GI50 (MOLT-4): > 100 µM (inactive)
- GI50 (MDA-MB-435): > 100 µM (inactive)
- GI50 (SK-OV-3): > 100 µM (inactive)
- GI50 (MCF7): > 100 µM (inactive)
- GI50 (NCI-H23): > 100 µM (inactive)
- GI50 (OVCAR-8): > 100 µM (inactive)
- GI50 (HCT-15): > 100 µM
- GI50 (Hs-578T): > 100 µM (inactive)
- GI50 (EKVX): > 100 µM (inactive)
- GI50 (SK-MEL-5): > 100 µM (inactive)
- GI50 (SK-MEL-2): > 100 µM (inactive)
- GI50 (IGROV-1): > 100 µM (inactive)
- GI50 (NCI-H460): > 100 µM (inactive)
- GI50 (HOP-62): > 100 µM (inactive)
- GI50 (HCC 2998): > 100 µM (inactive)
- GI50 (T47D): > 100 µM (inactive)
- GI50 (RPMI-8226): > 100 µM (inactive)
